13 compounds from patent US8653048B2 (Sanlugen Pharmatech Ltd., priority 2009, dated 2014) can be followed below.

Each structure is given as a SMILES string. pIC50: −log10 of the molar value.

Format in all cases: cell-based
Experiment [1] relates to NCI-H460: a human lung cancer cell line. The experiment can be described thus: MTT analytical method, NCI-H460 cells. To be noted: 72 h. The text has this:
(§1) MTT analytical method was used to test the prodrugs for various tumor cells.
(§2) • 1) Cell lines: NCI-H460, A549, LOVO, HT-29, MDA-MB-231, SGC7901, HepG2 or BEL-7402 cell lines. Culture: adherent culturing in D-MEM (Hyclone, Inc.) containing 10% fetal calf serum. The initial cell concentration was about 3×10^5 /mL. The cell was passaged by 1:3 dilution in every 2-3 days. On the day before the test, the cell was passaged by 1:2 dilution, the cell concentration for the test was 5-10×10^5 /mL. • 2) Dissolution and dilution of compounds: according to the weight and molecular weight of the drugs provided, 100-200 μL of DMSO was added. Then normal saline was added to make the final diluted concentration of the drugs be 5 mM (Note that the final concentration of DMSO should not be more than 10%). • 3) D-MEM or RPMI 1640 cell culture medium, Gibco, Inc. • 4) Fetal calf serum Hyclone, Inc. • 5) Cell dissociation buffer, 0.25% Trypsin+0.02% EDTA. • 6) MTT solution, MTT Powder (Sigma) were dissolved in PBS buffer solution to make a solution of 5 mg/mL. The solution was filtered by a 0.22 μm micropore membrane and stored at −20° C. • 7) PBS buffer solution. • 8) 10% acidified SDS, 0.01N HCl. • 9) Centrifuge tubes, haustorial tubes etc. (BD, Inc.); 96-well plates (Costatr, Inc.) Procedures: • 1) Cell inoculation: Cells grown for 24 hours after passage, which cells were in good growth state, were used. The cells were harvested by the routine method. The cell concentration was adjust with a fresh culture solution to 2×10^5/mL (for adherent cells)-3×10^5/mL (for suspension cells). The adherent cells were inoculated at 100 μL/well and then cultivated in an incubator with 5% CO2 at 37° C. for 24 h. Thereafter the used culture solution was removed and 95 μL/well of fresh culture solution was added. The suspension cells were inoculated at 95 μL/well directly. • 2) Drugs treatment: 9 concentration grades were designed for every drug, and every concentration had 3 wells. The control group had 5 wells. The control group was tested simultaneously in each test. The final concentrations of a drug added were […], and 5 μL normal saline was added to the control group. • 3) Cell culture and detection: the cells were cultured in an incubator with 5% CO2 at 37° C. for 72 h after the drug was added, then 10 μL MTT was added to each well and the culture was continued for 4 h. 100 μL of 10% SDS (containing 0.01N HCl) was added to each well. After 24 h, the absorbance (A) of each well was determined by Bio-rad 680 ELISA with the detection wavelength of 570 nm and the reference wavelength of 630 nm. Calculation:
(§3) First, the absorbance (A) of each well was averaged (removing any data with big difference). […] A0 was the mean absorbance of the control wells. The effect curve of the drug concentration was drawn using EXCEL software and the drug concentration for 50% cell survival was calculated according to an appropriate computing methods.
(In general: Tetrazolium assays rely on reduction of a dye to a coloured formazan, in cell work by metabolically active cells.)

The subject of experiment [2] is HT29: a human colon cancer cell line. As to the kind of experiment: MTT analytical method, HT29 cells. To be noted: HT-29, 72 h.
Source text: as §1, §2, §3

Experiment [3] has as its system LOVO: a human colon cancer cell line. The experiment can be described thus: MTT analytical method, LOVO cells. The note with it: 72 h.
Source text: as §1, §2, §3

The subject of experiment [4] is Bel7402: a human liver cancer cell line. As to the kind of experiment: MTT analytical method, Bel7402 cells. To be noted: Bel-7402, 72 h.
Source text: as §1, §2, §3

Experiment [5] concerns HepG2: a human liver cancer cell line. The experiment can be described thus: MTT analytical method, HepG2 cells. The note with it: 72 h.
Source text: as §1, §2, §3

The test system of experiment [6] is SGC7901: a human gastric cancer line. The experiment can be described thus: MTT analytical method, SGC7901 cells. The note with it: SGC-7901, 72 h.
Source text: as §1, §2, §3

Experiment [7] concerns MDA-MB-231: a human breast cancer line. The experiment can be described thus: MTT analytical method, MDA-MB-231 cells. To be noted: MDA-MB-231, MTT, 72 h.
Source text: as §1, §2, §3

In experiment [8] the test system is A549: a human lung cancer cell line. As to the kind of experiment: MTT analytical method, A549 cells. The note with it: 72 h.
Source text: as §1, §2, §3

For `CCCCCCCCCCCOC(=O)c1nccnc1C(=O)Nc1ccn([C@@H]2O[C@H](CO)[C@@H](O)C2(F)F)c(=O)n1` [Compound 5, Undecyl-3-((1-((2R,4R,5R)-3,3-difluoro-4-hydroxy-5-(hydroxymethyl)-tetrahydrofuran-2-yl)-2-oxo-1,2-dihydropyrimidin-4-yl)carbamoyl)pyrazine-2-carboxylate], the pIC50 – broadly, the negative decadic logarithm of the IC50, by convention in mol/L – in experiment [1] was over 5.70; in experiment [2], 4.52; in experiment [3] it was 6.00; in experiment [4], 4.80; in experiment [5], 5.40; in experiment [6] it was under 4.80. Also, in experiment [7], the pIC50 is under 4.80.

For `CCCCCCCCCCCOC(=O)c1ncccc1C(=O)Nc1ccn([C@@H]2O[C@H](CO)[C@@H](O)C2(F)F)c(=O)n1` [Compound 15, Undecyl-3-((1-((2R,4R,5R)-3,3-difluoro-4-hydroxy-5-(hydroxymethyl)-tetrahydrofuran-2-yl)-2-oxo-1,2-dihydropyrimidin-4-yl)carbamoyl)picolinate], the pIC50 was 5.52 in experiment [8]; over 6.00 in experiment [1]; over 5.70 in experiment [2]; 4.80 in experiment [3]; 5.40 in experiment [4]; 5.40 in experiment [5]. Also, the pIC50 is under 4.80 in experiment [6] and 4.96 in experiment [7].

In the case of `CCCCCCCCCCCCOC(=O)c1ccccc1C(=O)Nc1ccn([C@@H]2O[C@H](CO)[C@@H](O)C2(F)F)c(=O)n1` [Compound 1, Dodecyl-2-((1-((2R,4R,5R)-3,3-difluoro-4-hydroxy-5-(hydroxymethyl)-tetrahydrofuran-2-yl)-2-oxo-1,2-dihydropyrimidin-4-yl)carbamoyl)benzoate], the pIC50 is 4.64 in experiment [8], 4.89 in experiment [2] and 4.70 in experiment [4].

As to `CCCCCCCCCCCCOC(=O)c1ccncc1C(=O)Nc1ccn([C@@H]2O[C@H](CO)[C@@H](O)C2(F)F)c(=O)n1` [Compound 24, Dodecyl-3-((1-((2R,4R,5R)-3,3-difluoro-4-hydroxy-5-(hydroxymethyl)-tetrahydrofuran-2-yl)-2-oxo-1,2-dihydropyrimidin-4-yl)carbamoyl)isonicotinate], the pIC50 in experiment [8] was 5.10; in experiment [2], 5.10; in experiment [4], 4.80.

For `CCCCCCCCCCCOC(=O)c1ccncc1C(=O)Nc1ccn([C@@H]2O[C@H](CO)[C@@H](O)C2(F)F)c(=O)n1` [Compound 22, Undecyl-3-((1-((2R,4R,5R)-3,3-difluoro-4-hydroxy-5-(hydroxymethyl)-tetrahydrofuran-2-yl)-2-oxo-1,2-dihydropyrimidin-4-yl)carbamoyl)isonicotinate], the pIC50 in experiment [8] is 5.10; in experiment [2], 4.52; in experiment [4] it was 4.80.

With `CCCCCCCCCCCOC(=O)c1cc(C(=O)Nc2ccn([C@@H]3O[C@H](CO)[C@@H](O)C3(F)F)c(=O)n2)[nH]n1` [Compound 30, Undecyl-5-((1-((2R,4R,5R)-3,3-difluoro-4-hydroxy-5-(hydroxymethyl)-tetrahydrofuran-2-yl)-2-oxo-1,2-dihydropyrimidin-4-yl)carbamoyl)-1H-pyrazole-3-carboxylate], the pIC50 in experiment [8] was 4.85; in experiment [2] it was 5.40; in experiment [4] it was 4.80.

Take `CCCCCCCCCCCCOC(=O)c1ccc(C(=O)Nc2ccn([C@@H]3O[C@H](CO)[C@@H](O)C3(F)F)c(=O)n2)cn1` [Compound 9, Dodecyl-5-((1-((2R,4R,5R)-3,3-difluoro-4-hydroxy-5-(hydroxymethyl)-tetrahydrofuran-2-yl)-2-oxo-1,2-dihydropyrimidin-4-yl)carbamoyl)picolinate]: the negative-log IC50 (pIC50) is 5.40 in experiment [8]; over 5.70 in experiment [1]; 5.52 in experiment [2]; 5.30 in experiment [3]; 4.89 in experiment [4]; 5.22 in experiment [5]. Besides, the pIC50 in experiment [6] and in experiment [7] was under 4.80 in each case.

As for `CCCCCCCCCCCCOC(=O)c1cccc(C(=O)Nc2ccn([C@@H]3O[C@H](CO)[C@@H](O)C3(F)F)c(=O)n2)n1` [Compound 18, Dodecyl-6-((1-((2R,4R,5R)-3,3-difluoro-4-hydroxy-5-(hydroxymethyl)-tetrahydrofuran-2-yl)-2-oxo-1,2-dihydropyrimidin-4-yl)carbamoyl)picolinate], the results for the pIC50 in experiment [8], in experiment [2] and in experiment [4] were 4.82, 5.15 and 4.80, respectively.

As for `CCCCCCCCCCCCOC(=O)c1ccnc(C(=O)Nc2ccn([C@@H]3O[C@H](CO)[C@@H](O)C3(F)F)c(=O)n2)c1` [Compound 26, Dodecyl-2-((1-((2R,4R,5R)-3,3-difluoro-4-hydroxy-5-(hydroxymethyl)-tetrahydrofuran-2-yl)-2-oxo-1,2-dihydropyrimidin-4-yl)carbamoyl)isonicotinate], the pIC50 in experiment [8] is 5.52; in experiment [1] it was over 6.00; in experiment [2], 5.70; in experiment [3], 4.80; in experiment [4], 5.10; in experiment [5], 5.70. Further, the pIC50 in experiment [6] is under 4.80; in experiment [7], 5.22.

Take `CCCCCCCCCCCCOC(=O)c1cc(C(=O)Nc2ccn([C@@H]3O[C@H](CO)[C@@H](O)C3(F)F)c(=O)n2)ccn1` [Compound 27, Dodecyl-4-((1-((2R,4R,5R)-3,3-difluoro-4-hydroxy-5-(hydroxymethyl)-tetrahydrofuran-2-yl)-2-oxo-1,2-dihydropyrimidin-4-yl)carbamoyl)picolinate]: the pIC50 in experiment [8] is 5.40; in experiment [1], over 6.00; in experiment [2] it was over 5.70; in experiment [3] it was 5.70; in experiment [4], 5.40; in experiment [5] it was 6.00. The pIC50 in experiment [6] was under 4.80; in experiment [7], over 6.00.

For `CCCCCCCCCCCOC(=O)c1ccc(C(=O)Nc2ccn([C@@H]3O[C@H](CO)[C@@H](O)C3(F)F)c(=O)n2)cn1` [Compound 11, Undecyl-5-((1-((2R,4R,5R)-3,3-difluoro-4-hydroxy-5-(hydroxymethyl)-tetrahydrofuran-2-yl)-2-oxo-1,2-dihydropyrimidin-4-yl)carbamoyl)picolinate], the figures for the pIC50 in experiment [8], in experiment [2] and in experiment [4] were 5.52, over 5.70 and 5.40, respectively.

Consider `CCCCCCCCCCCOC(=O)c1cc(C(=O)Nc2ccn([C@@H]3O[C@H](CO)[C@@H](O)C3(F)F)c(=O)n2)ccn1` [Compound 29, Undecyl-4-((1-((2R,4R,5R)-3,3-difluoro-4-hydroxy-5-(hydroxymethyl)-tetrahydrofuran-2-yl)-2-oxo-1,2-dihydropyrimidin-4-yl)carbamoyl)picolinate], for which the pIC50 in experiment [8] is 5.52; in experiment [2], over 5.70; in experiment [4], 5.10.

Consider `CCCCCCCCCCCCOC(=O)c1ccc(C(=O)Nc2ccn([C@@H]3O[C@H](CO)[C@@H](O)C3(F)F)c(=O)n2)s1` [Compound 20, Dodecyl-5-((1-((2R,4R,5R)-3,3-difluoro-4-hydroxy-5-(hydroxymethyl)-tetrahydrofuran-2-yl)-2-oxo-1,2-dihydropyrimidin-4-yl)carbamoyl)thiophene-2-carboxylate], for which the pIC50 was 4.89 in experiment [8], 5.22 in experiment [2] and 4.85 in experiment [4].
